One data set has as its target PDGFRα (Homo sapiens (Human), UniProt P16234). The experiment in a line: PDGFRα kinase enzyme assay (Promega PDGFRα Kinase Enzyme System, ADP-Glo). It counts as biochemical. The note with it: 150 uM ATP. As for the experimental part:
The PDGFRα enzyme assays were conducted per the manufacturer's directions (Promega PDGFRα Kinase Enzyme System and ADP Glo Assay Cat #V8011). […] 20 ng of purified PDGFRα protein was added to the test article. […] ADP-Glo was added to halt the kinase reaction and deplete the remaining ATP. Kinase detection reagent, containing luciferase and luciferin, was used to convert the ADP signal into luminescence. Luminescence was measured using a Molecular Devices Spectramax ID5 and compared to a standard curve to determine kinase activity. IC50s were calculated using Prism 9, Graphpad software.
A general note: ADP-Glo first removes unused ATP, then detects ADP through luciferase.

Data set [1] relates to Oligodendrocyte progenitor cells (OPCs). The experiment in a line: In vitro OPC differentiation assay, GPR17 expression (immunocytochemistry). The note with it: 72 hours; for GPR17 Fold Induction (Over Vehicle; 3 μM): 3 μM (10× concentration, final 0.3 μM), fold change over vehicle.
Setting [2] is: 11-point dose response, 10,000 nM to 0.169 nM, BLQ = below limit of quantitation, read-out: IC50 Values on PDGFRα Kinase Inhibition, IC50.

The values below come from patent US20250129067A1 (Progentos Therapeutics, Inc., priority 2021, published 2025).

Each structure is given as a SMILES string. Like-named read-outs stand apart in the source and are kept apart here.

Chain of PDGFRα (P16234 24-1089): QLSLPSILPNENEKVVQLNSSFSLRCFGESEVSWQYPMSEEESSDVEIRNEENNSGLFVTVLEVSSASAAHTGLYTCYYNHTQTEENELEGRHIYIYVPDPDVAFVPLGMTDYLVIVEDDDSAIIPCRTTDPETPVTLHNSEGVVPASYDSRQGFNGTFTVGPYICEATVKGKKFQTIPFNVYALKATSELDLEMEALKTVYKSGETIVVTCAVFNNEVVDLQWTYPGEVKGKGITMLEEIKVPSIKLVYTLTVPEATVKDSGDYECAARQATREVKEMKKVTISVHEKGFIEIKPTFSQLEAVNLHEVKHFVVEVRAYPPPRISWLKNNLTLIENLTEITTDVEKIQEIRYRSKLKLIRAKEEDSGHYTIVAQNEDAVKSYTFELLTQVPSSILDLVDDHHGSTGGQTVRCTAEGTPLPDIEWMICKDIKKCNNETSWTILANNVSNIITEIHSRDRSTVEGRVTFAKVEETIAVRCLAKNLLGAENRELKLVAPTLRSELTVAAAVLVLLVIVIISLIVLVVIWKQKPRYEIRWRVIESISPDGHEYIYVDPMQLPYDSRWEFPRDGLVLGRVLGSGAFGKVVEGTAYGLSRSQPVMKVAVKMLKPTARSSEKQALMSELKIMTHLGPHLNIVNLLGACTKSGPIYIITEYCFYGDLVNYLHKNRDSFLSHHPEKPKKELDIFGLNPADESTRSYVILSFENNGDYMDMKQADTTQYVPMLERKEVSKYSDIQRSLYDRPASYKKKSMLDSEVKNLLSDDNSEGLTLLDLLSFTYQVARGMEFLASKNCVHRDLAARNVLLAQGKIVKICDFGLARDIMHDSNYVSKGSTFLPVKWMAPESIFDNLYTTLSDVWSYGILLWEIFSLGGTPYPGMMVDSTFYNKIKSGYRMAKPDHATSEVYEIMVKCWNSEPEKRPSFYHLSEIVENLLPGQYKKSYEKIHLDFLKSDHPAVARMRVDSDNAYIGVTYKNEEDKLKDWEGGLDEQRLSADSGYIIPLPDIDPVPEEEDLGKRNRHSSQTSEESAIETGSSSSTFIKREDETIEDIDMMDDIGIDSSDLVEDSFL

As a reminder, the IC50 is the concentration that gives 50% inhibition. On to `Cn1cc(-c2ccc3c(N4CCN(C(=O)OC(C)(C)C)CC4=O)cnn3c2)cn1` [Compound 28, tert-butyl 4-[6-(1-methyl-1H-pyrazol-4-yl)pyrazolo[1,5-a]pyridine-3-yl]-3-oxopiperazine-1-carboxylate], for which the half-maximal inhibitory concentration (IC50) at PDGFRα (setting [2]) was more than 10 µM. Also, in data set [1], the “GPR17 Fold Induction (Over Vehicle; 3 μM)” value was 1.84.

As to `Cc1ccc(F)c(NC(=O)Nc2ccc(-c3cccc4[nH]nc(N)c34)cc2)c1` [Linifanib (ABT-869), linifanib, reference compound], the IC50 at PDGFRα (20 ng purified PDGFRα, Poly (Glu4Tyr1) substrate, two hours, 11-point dose response, read-out: IC50 Values on PDGFRα Kinase Inhibition) amounted to 1.21 µM. Further, in data set [1] (primary rat OPCs, 5 μM (10x; final 0.5 μM per method), percent GPR17+ cells as fold change over vehicle), the “GPR17 Fold Induction (Over Vehicle; 5 μM)” value is listed as 4.68.

For the compound `Cn1cc(-c2cc3ncc(N4CCCN(c5ncc(Cc6ccccc6)cn5)CC4)n3cn2)cn1` [Compound 114, 3-(4-(5-benzylpyrimidin-2-yl)-1,4-diazepan-1-yl)-7-(1-methyl-1H-pyrazol-4-yl)imidazo[1,2-c]pyrimidine], the IC50 on PDGFRα (setting [2]) was more than 10 µM. Further, the “GPR17 Fold Induction (Over Vehicle; 3 μM)” value in data set [1] is 0.33.

With `CC(C)(C)OC(=O)N1CCCN(c2cnc3cc(C4CCOC4)ncn23)CC1` (centres unmarked) [Compound 94, tert-butyl 4-(7-(tetrahydrofuran-3-yl)imidazo[1,2-c]pyrimidin-3-yl)-1,4-diazepane-1-carboxylate], the IC50 at PDGFRα (setting [2]) is more than 10 µM. Further, in data set [1], the “GPR17 Fold Induction (Over Vehicle; 3 μM)” value amounted to 1.00.

As for `CC(C)(C)OC(=O)N1CCN(c2cnc3nc(-c4cccnc4)ccn23)CC1` [Compound 102, tert-butyl 4-(7-(pyridin-3-yl)imidazo[1,2-a]pyrimidin-3-yl)piperazine-1-carboxylate], the IC50 on PDGFRα (setting [2]) is 6.98 µM. Also, in data set [1], the “GPR17 Fold Induction (Over Vehicle; 3 μM)” value was found to be 0.58.

`CCCCC(O)c1cnc(N2CCN(c3cnn4cc(-c5cnn(C)c5)ccc34)CC2)nc1` (centres unmarked) [Compound 168, 1-(2-(4-(6-(1-methyl-1H-pyrazol-4-yl)pyrazolo[1,5-a]pyridin-3-yl)piperazin-1-yl)pyrimidin-5-yl)pentan-1-ol]: on PDGFRα (setting [2]), the IC50 came to 0.105 µM. The “GPR17 Fold Induction (Over Vehicle; 3 μM)” value in data set [1] is given as 6.43.

As to `Cn1cc(-c2ccc3c(N4CCC(C(=O)OCc5ccccc5)CC4)cnn3c2)cn1` [Compound 145, benzyl 1-(6-(1-methyl-1H-pyrazol-4-yl)pyrazolo[1,5-a]pyridin-3-yl)piperidine-4-carboxylate], the IC50 at PDGFRα (setting [2]) amounted to 6.97 µM. For the same compound, the “GPR17 Fold Induction (Over Vehicle; 3 μM)” value in data set [1] was found to be 1.73.

Regarding `Cn1cc(-c2ccc3c(N4CCC(C(=O)NCc5ccccc5)CC4)cnn3c2)cn1` [Compound 146, N-benzyl-1-(6-(1-methyl-1H-pyrazol-4-yl)pyrazolo[1,5-a]pyridin-3-yl)piperidine-4-carboxamide], the IC50 at PDGFRα (setting [2]) worked out at 5.69 µM. For the same compound, in data set [1], the “GPR17 Fold Induction (Over Vehicle; 3 μM)” value was determined as 4.45.

As for `Cn1cc(-c2ccc3c(-c4ccn(-c5ncc(Cc6ccccc6)cn5)c4)cnn3c2)cn1` [Compound 76, 3-[1-(5-benzylpyrimidin-2-yl)-1H-pyrrol-3-yl]-6-(1-methyl-1H-pyrazol-4-yl)pyrazolo[1,5-a]pyridine], at PDGFRα (setting [2]), the IC50 turned out to be 0.923 µM. For the same compound, in data set [1], the “GPR17 Fold Induction (Over Vehicle; 3 μM)” value is recorded as 6.18.

As for `Cn1cc(-c2ccc3c(N4CCN(c5ncc(Cc6ncon6)cn5)CC4)cnn3c2)cn1` [Compound 301, 3-((2-(4-(6-(1-methyl-1H-pyrazol-4-yl)pyrazolo[1,5-a]pyridin-3-yl)piperazin-1-yl)pyrimidin-5-yl)methyl)-1,2,4-oxadiazole], the IC50 on PDGFRα (setting [2]) was more than 10 µM. Further, the “GPR17 Fold Induction (Over Vehicle; 3 μM)” value in data set [1] stood at 2.96.

As to `CC(C)(C)OC(=O)N1CCN(c2cnn3cc(-c4ccccc4)ccc23)CC1` [Compound 206, tert-butyl 4-(6-phenylpyrazolo[1,5-a]pyridin-3-yl)piperazine-1-carboxylate], the IC50 at PDGFRα (setting [2]) came out at 5.34 µM. Further, the “GPR17 Fold Induction (Over Vehicle; 3 μM)” value in data set [1] is 3.32.

In the case of `Cn1cc(-c2ccc3c(C4CCC(C(=O)OCc5ccccc5)C4)cnn3c2)cn1` (centres unmarked) [Compound 137], the IC50 on PDGFRα (setting [2]) worked out at 5.05 µM. The “GPR17 Fold Induction (Over Vehicle; 3 μM)” value in data set [1] worked out at 0.99.

`CC(C)(C)OC(=O)N1CCCN(c2cnc3cc(-c4cccnc4)ncn23)CC1` [Compound 92, tert-butyl 4-(7-(pyridin-3-yl)imidazo[1,2-c]pyrimidin-3-yl)-1,4-diazepane-1-carboxylate]: the IC50 on PDGFRα (setting [2]) is more than 10 µM. For the same compound, the “GPR17 Fold Induction (Over Vehicle; 3 μM)” value in data set [1] came out at 0.81.

With `CN(Cc1ccccc1)C(=O)C1CC=C(c2cnn3cc(-c4cnn(C)c4)ccc23)C1` (centres unmarked) [Compound 135, N-benzyl-N-methyl-3-(6-(1-methyl-1H-pyrazol-4-yl)pyrazolo[1,5-a]pyridin-3-yl)cyclopent-3-ene-1-carboxamide], on PDGFRα (setting [2]), the IC50 amounted to 3.63 µM. Besides, in data set [1], the “GPR17 Fold Induction (Over Vehicle; 3 μM)” value is reported as 7.38.

For the compound `Cn1cc(-c2ccc3c(NCCNc4ncc(Cc5ccccc5)cn4)cnn3c2)cn1` [Compound 123, N^1-(5-benzylpyrimidin-2-yl)-N^2-(6-(1-methyl-1H-pyrazol-4-yl)pyrazolo[1,5-a]pyridin-3-yl)ethane-1,2-diamine], the IC50 on PDGFRα (setting [2]) is more than 10 µM. The “GPR17 Fold Induction (Over Vehicle; 3 μM)” value in data set [1] is on record as 1.34.

Turning to `Cn1cc(-c2ccc3c(N4CCN(S(=O)(=O)CCc5ccccc5)CC4)cnn3c2)cn1` [Compound 160, 6-(1-methyl-1H-pyrazol-4-yl)-3-(4-(phenethylsulfonyl)piperazin-1-yl)pyrazolo[1,5-a]pyridine], the IC50 at PDGFRα (setting [2]) came to 9.68 µM. The “GPR17 Fold Induction (Over Vehicle; 3 μM)” value in data set [1] is given as 2.80.

On to `CN(Cc1ccccc1)C(=O)C1CCN(c2cnn3cc(-c4cnn(C)c4)ccc23)CC1` [Compound 147, N-benzyl-N-methyl-1-(6-(1-methyl-1H-pyrazol-4-yl)pyrazolo[1,5-a]pyridin-3-yl)piperidine-4-carboxamide], for which the IC50 at PDGFRα (setting [2]) is 6.72 µM. The “GPR17 Fold Induction (Over Vehicle; 3 μM)” value in data set [1] is listed as 2.23.

In the case of `Cn1cc(-c2ccc3c(N4CCN(C(=O)OC(C)(C)C)CC4)cnn3n2)cn1` [Compound 45, Tert-butyl 4-[6-(1-methyl-1H-pyrazol-4-yl)pyrazolo[1,5-b]pyridazin-3-yl]piperazine-1-carboxylate], the IC50 on PDGFRα (setting [2]) was determined as 1.39 µM. Besides, the “GPR17 Fold Induction (Over Vehicle; 3 μM)” value in data set [1] is recorded as 1.39.

Regarding `Cn1cc(-c2ccc3c(C4CCC(C(=O)OCc5ccccc5)CC4)cnn3c2)cn1` (centres unmarked) [Compound 136, benzyl 4-(6-(1-methyl-1H-pyrazol-4-yl)pyrazolo[1,5-a]pyridin-3-yl)cyclohexane-1-carboxylate], the IC50 on PDGFRα (setting [2]) is more than 10 µM. Further, the “GPR17 Fold Induction (Over Vehicle; 3 μM)” value in data set [1] is 3.64.

Regarding `COCCn1cc(-c2cc3ncc(N(C)CCN(C)C(=O)OC(C)(C)C)n3cn2)cn1` [Compound 97, tert-butyl (2-((7-(1-(2-methoxyethyl)-1H-pyrazol-4-yl)imidazo[1,2-c]pyrimidin-3-yl)(methyl)amino)ethyl)(methyl)carbamate], the IC50 at PDGFRα (setting [2]) was more than 10 µM. Also, the “GPR17 Fold Induction (Over Vehicle; 3 μM)” value in data set [1] was 1.25.

`Cn1cnc(-c2ccc3c(N4CCN(C(=O)OC(C)(C)C)CC4)cnn3c2)c1` [Compound 226, tert-butyl 4-(6-(1-methyl-1H-imidazol-4-yl)pyrazolo[1,5-a]pyridin-3-yl)piperazine-1-carboxylate]: the IC50 on PDGFRα (setting [2]) was determined as 1.42 µM. Also, the “GPR17 Fold Induction (Over Vehicle; 3 μM)” value in data set [1] came to 11.69.

On to `Cn1cc(-c2ccc3c(N4CCN(c5ncc(C(=O)C(F)(F)F)cn5)CC4)cnn3c2)cn1` [Compound 284, 2,2,2-trifluoro-1-(2-(4-(6-(1-methyl-1H-pyrazol-4-yl)pyrazolo[1,5-a]pyridin-3-yl)piperazin-1-yl)pyrimidin-5-yl)ethan-1-one], for which the IC50 on PDGFRα (setting [2]) is more than 10 µM. In data set [1], the “GPR17 Fold Induction (Over Vehicle; 3 μM)” value was 6.21.
